Where a name gives a salt, the structure may show the parent alone.
How the values were obtained:
[1] = test system: Plasmodium falciparum 3D7; assay: Plasmodium falciparum susceptibility assay, first round (SYBR Green I); assay type: cell-based; details: 3D7, first round, 48-h incubation, strain susceptible to CQ, decreased susceptibility to MQ, read-out: IC50 (nM) Plasmodium falciparum 3D7 (converted)
Plasmodium falciparum W2 = assay: as above; assay type: cell-based; details: W2, first round, 48-h incubation, strain resistant to CQ, sensitive to MQ, read-out: IC50 (nM) Plasmodium falciparum W2 (converted)

With `O[C@@H](CNCCCN1CCN(C(c2ccccc2)c2ccccc2)CC1)c1cc(-c2ccc(C(F)(F)F)cc2)nc(C(F)(F)F)c1` [1n•HCl, (R)-2-((3-(4-benzhydrylpiperazin-1-yl)propyl)amino)-1-(2-(trifluoromethyl)-6-(4-(trifluoromethyl)phenyl)pyridin-4-yl)ethanol hydrochloride] the IC50 [1] was 125 nM.
Molecule `CCCCCCNC[C@@H](O)c1ccc(-c2ccc(C(F)(F)F)cc2)nc1C(F)(F)F` [Compound 30e, (S)-2-(Hexylamino)-1-(2-(trifluoromethyl)-6-(4-(trifluoromethyl)phenyl)pyridin-3-yl)ethanol] has an IC50 (Plasmodium falciparum W2) of 27.2 ± 9.3 nM and an IC50 [1] of 170 ± 24 nM.
`O[C@H](CNCCNC(c1ccccc1)c1ccccc1)c1ccc(-c2ccc(C(F)(F)F)cc2)nc1C(F)(F)F` [Compound 30i, (S)-2-((2-(Benzhydrylamino)ethyl)amino)-1-(2-(trifluoromethyl)-6-(4-(trifluoromethyl)phenyl)pyridin-3-yl)ethanol] gave an IC50 (Plasmodium falciparum W2) of 248 ± 36 nM and an IC50 [1] of 32.9 nM.
With `CCCCNC[C@H](O)c1ccc(-c2ccc(C(F)(F)F)cc2)nc1C(F)(F)F` [Compound 30b] the IC50 (Plasmodium falciparum W2) was 523 nM and the IC50 [1] was 1380 nM.
For `CCCCCCCNC[C@H](O)c1ccc(-c2ccc(C(F)(F)F)cc2)nc1C(F)(F)F` [Compound 30h, (R)-2-(Heptylamino)-1-(2-(trifluoromethyl)-6-(4-(trifluoromethyl)phenyl)pyridin-3-yl) ethanol], the IC50 (Plasmodium falciparum W2) was 31.7 nM and the IC50 [1] was 519 nM.
`CCCCCCCNC[C@@H](O)c1cc(-c2ccc(C(F)(F)F)cc2)nc(C(F)(F)F)c1` [Compound 1e, (S)-2-(Heptylamino)-1-(2-(trifluoromethyl)-6-(4-(trifluoromethyl)phenyl)pyridin-4-yl)ethanol] showed an IC50 (Plasmodium falciparum W2) of 5.6 nM and an IC50 [1] of 17.7 nM.
For `CCCCCCCNC[C@H](O)c1cc(-c2ccc(C(F)(F)F)cc2)nc(C(F)(F)F)c1` [Compound 1f, (R)-2-(Heptylamino)-1-(2-(trifluoromethyl)-6-(4-(trifluoromethyl)phenyl)pyridin-4-yl)ethanol], the IC50 (Plasmodium falciparum W2) was 3.5 nM and the IC50 [1] was 54.4 nM.
Work on `CCCCNC[C@@H](O)c1ccc(-c2ccc(C(F)(F)F)cc2)nc1C(F)(F)F` [Compound 30a, (S)-2-(Butylamino)-1-(2-(trifluoromethyl)-6-(4-(trifluoromethyl)phenyl)pyridin-3-yl)ethanol] yielded an IC50 (Plasmodium falciparum W2) of 132 ± 10.3 nM and an IC50 [1] of 479 ± 38.2 nM.
`COC[C@H](Cc1ccccc1)NC[C@H](O)c1cc(-c2ccc(C(F)(F)F)cc2)nc(C(F)(F)F)c1` [Compound 1j, (R)-2-(((S)-1-Methoxy-3-phenylpropan-2-yl)amino)-1-(2-(trifluoromethyl)-6-(4-(trifluoromethyl)phenyl)pyridin-4-yl)ethanol] gave an IC50 (Plasmodium falciparum W2) of 14.4 nM and an IC50 [1] of 32.8 nM.
`CCCCCNC[C@H](O)c1ccc(-c2ccc(C(F)(F)F)cc2)nc1C(F)(F)F` [Compound 30d, (R)-2-(Pentylamino)-1-(2-(trifluoromethyl)-6-(4-(trifluoromethyl)phenyl)pyridin-3-yl)ethanol] was tested, and the IC50 (Plasmodium falciparum W2) was 551 nM and the IC50 [1] was 558 nM.
`CCCCCCNC[C@@H](O)c1cc(-c2ccc(C(F)(F)F)cc2)nc(C(F)(F)F)c1` [Compound 1c, (S)-2-(Hexylamino)-1-(2-(trifluoromethyl)-6-(4-(trifluoromethyl)phenyl)pyridin-4-yl)ethanol] gave an IC50 [1] of 47.1 ± 13.2 nM.
Molecule `O[C@H](CNCCCN1CCN(C(c2ccccc2)c2ccccc2)CC1)c1cc(-c2ccc(C(F)(F)F)cc2)nc(C(F)(F)F)c1` [1m•HCl, (S)-2-((3-(4-benzhydrylpiperazin-1-yl)propyl)amino)-1-(2-(trifluoromethyl)-6-(4-(trifluoromethyl)phenyl)pyridin-4-yl)ethanol hydrochloride] has an IC50 (Plasmodium falciparum W2) of 67 ± 9.3 nM.
For `O[C@H](CNCCCN1CCN(C(c2ccccc2)c2ccccc2)CC1)c1cc(-c2ccc(C(F)(F)F)cc2)nc(C(F)(F)F)c1` [Compound 1m, (S)-2-((3-(4-benzhydrylpiperazin-1-yl)propyl)amino)-1-(2-(trifluoromethyl)-6-(4-(trifluoromethyl)phenyl)pyridin-4-yl)ethanol], the IC50 [1] was 126 nM.

Reference: patent US11220482B2, “Aminopyridinemethanol compounds and their use” (UNIVERSITE AMIENS PICARDIE JULES VERNE, priority 2017, dated 2022)
